Measured values from ChEMBL document CHEMBL1130745, “Inhibitory effect and action mechanism of sesquiterpenes from Zedoariae Rhizoma on D-galactosamine/lipopolysaccharide-induced liver injury” (1998).

Legend:
Format in all cases: functional
Mus musculus [1] = species: Mus musculus; test: In vitro inhibitory activity on the production of nitric oxide (NO) induced by LPS in mouse peritoneal macrophages at a concentration of 10e-4 M
Mus musculus [2] = test: In vivo inhibitory activity on the increase of serum GPT induced by D-GalN / LPS (liver injury) in mice at 50 mg/kg peroral administration; settings: route oral
Rattus norvegicus = species: Rattus norvegicus; test: In vitro hepatocytotoxicity induced by D-GalN in primary cultured rat hepatocytes at a concentration of 10e-4 M; settings: Hepatocyte
Mus musculus [3] = test: In vivo inhibitory activity on the increase of serum GOT induced by D-GalN / LPS (liver injury) in mice at 50 mg/kg peroral administration; settings: route oral
Mus musculus [4] = test: In vivo inhibitory activity on the increase of serum GOT induced by D-GalN / LPS (liver injury) in mice at 20 mg/kg peroral administration; settings: route oral

Row | SMILES | inhibition at 100 µM (Mus musculus [1]) | inhibition in vivo at 50 mg/kg (Mus musculus [2]) | inhibition at 100 µM (Rattus norvegicus) | inhibition in vivo at 50 mg/kg (Mus musculus [3]) | inhibition in vivo at 20 mg/kg (Mus musculus [4])
1 | CC1=CC(=O)C(=C(C)C)CC2[C@@](C)(O)CC[C@]12O (some centres undefined) | -8.8% | 88% | -41.5% | 89.1% | –
2 | CC(C)=C1C/C=C(\C)CC/C=C(\C)CC1=O | 46.8% | 82.9% | 59.8% | 78.1% | –
3 | C=C1CC(=O)C(=C(C)C)CC2[C@H]1CC[C@]2(C)O (some centres undefined) | 54.5% | 26.7% | -5.2% | 22.3% | –
4 | C/C1=C\C/C(=C(/C)CO)C(=O)C/C(C)=C/CC1 | -14.6% | 36.1% | -21.7% | 21.5% | –
5 | COc1cc(/C=C/C(=O)CC(=O)/C=C/c2ccc(O)c(OC)c2)ccc1O [CURCUMIN] | 98.8% | 71.2% | -44.3% | 63.4% | –
6 | CC1=CC2(O)O[C@@]3(CC2=C(C)C)[C@@H](C)CC[C@@H]13 (single isomer, unassigned) [CURCUMENOL] | 50.4% | 50.7% | 25.1% | 53.3% | –
7 | C/C1=C\CC[C@@H](C)C(=O)C[C@@H](C(C)C)C(=O)C1 | 41.9% | 59.3% | 44.6% | 58.4% | –
8 | CC(=O)CC[C@H]1[C@@H]2CC(=C(C)C)C(=O)C[C@]12C | 13% | 90.1% | -12.2% | 88% | –
9 | C/C1=C\CC[C@H](C)C(=O)C[C@@H](C(C)C)C(=O)C1 | 2% | 76.6% | 77.1% | 74.6% | –
10 | CC(C)=C1CC(=O)[C@@H](C)CC/C=C(\C)CC1=O | 53.7% | 49.7% | -6.3% | 46.2% | –
11 | C[C@]12CCC(=O)C=C1CCC1[C@@H]2[C@@H](O)C[C@@]2(C)[C@H]1CC[C@]2(O)C(=O)CO (single isomer, unassigned) [HYDROCORTISONE] | 92.6% | 99% | – | – | 98.3%
12 | C=C1CC2(O)O[C@@]3(CC2=C(C)C)[C@@H](C)CC[C@@H]13 (single isomer, unassigned) [ISOCURCUMENOL] | 36.5% | 77.3% | 14.2% | 80.2% | –
13 | CC(C)=C1CC2[C@@H](CC[C@]2(C)O)[C@](C)(O)CC1=O (some centres undefined) | 31.7% | 60.7% | -35.6% | 54.7% | –
14 | C/C1=C\Cc2c(C)coc2C/C(C)=C/CC1 [ISOFURANODIENE] | 96.1% | 72.9% | -0.5% | 74.3% | –
15 | C/C1=C\CC[C@]2(C)O[C@H]2C(=O)c2c(C)coc2C1 | -5% | 39.5% | -7.9% | 35.4% | –
